16 compounds from ChEMBL document CHEMBL1909046, “DrugMatrix in vitro pharmacology data” can be followed below.

SMILES strings stand for the structures.

Test [1] in a line: DRUGMATRIX: Tumor Necrosis Factor (TNF), Non-Selective radioligand binding (ligand: [125I] TNF-alpha). The format is cell membranes, Membrane. The following applies: u-937; Not Active = under 50% inhibition at 10 µM.
Test [2] can be described thus: DRUGMATRIX: Glutamate, NMDA, Phencyclidine radioligand binding (ligand: [3H] TCP). The format is cell membranes, Rattus norvegicus, Wistar, Cerebral cortex, Membrane. The following applies: Not Active = under 50% inhibition at 10 µM.
Another test concerns the target T1, Adenosine receptor A1 (Homo sapiens, UniProt P30542).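 Note: radioligand binding assay at the adenosine A1 receptor, with DPCPX serving as the labelled ligand; in other assays of this panel Not Active means under 50% inhibition at 10 µM.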
T1 sequence (P30542 whole entry): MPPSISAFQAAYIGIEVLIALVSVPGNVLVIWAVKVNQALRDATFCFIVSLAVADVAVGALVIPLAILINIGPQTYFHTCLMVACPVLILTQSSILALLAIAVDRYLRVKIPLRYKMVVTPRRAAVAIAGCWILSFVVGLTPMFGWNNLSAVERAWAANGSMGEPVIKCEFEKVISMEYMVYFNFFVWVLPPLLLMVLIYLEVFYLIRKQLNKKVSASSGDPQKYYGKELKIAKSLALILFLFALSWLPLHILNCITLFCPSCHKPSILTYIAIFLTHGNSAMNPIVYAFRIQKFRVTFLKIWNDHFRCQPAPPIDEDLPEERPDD
The format is cell membranes, CHO, Membrane. The following applies: cho.

For test [3], the target named is T2, Neuropeptide Y receptor type 1 (Homo sapiens, UniProt P25929). Note: in other assays of this panel Not Active means under 50% inhibition at 10 µM.
T2 sequence (P25929 whole entry): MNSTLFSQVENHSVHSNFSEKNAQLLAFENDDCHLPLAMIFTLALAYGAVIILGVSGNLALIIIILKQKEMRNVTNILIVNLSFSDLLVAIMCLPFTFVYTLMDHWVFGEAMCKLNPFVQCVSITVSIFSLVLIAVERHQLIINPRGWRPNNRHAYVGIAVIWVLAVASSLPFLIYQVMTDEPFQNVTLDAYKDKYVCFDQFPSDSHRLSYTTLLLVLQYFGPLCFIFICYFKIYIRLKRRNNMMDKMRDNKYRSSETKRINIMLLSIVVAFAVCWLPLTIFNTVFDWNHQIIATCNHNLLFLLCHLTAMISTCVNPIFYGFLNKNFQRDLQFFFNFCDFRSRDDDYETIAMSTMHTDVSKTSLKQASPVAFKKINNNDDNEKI
The format is cell membranes, Membrane. The following applies: sk-n-mc.

The nature of test [4]: DRUGMATRIX: Nicotinic Acetylcholine radioligand binding (ligand: [125I] Epibatidine). The format is cell membranes, Membrane. The following applies: imr-32; Not Active = under 50% inhibition at 10 µM.
In test [5] the target is T3, 3-hydroxy-3-methylglutaryl-coenzyme A reductase (Homo sapiens, UniProt P04035).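 Note: enzyme inhibition assay of HMG-CoA reductase using radiolabeled [14C]HMG-CoA as substrate; in other assays of this panel Not Active means under 50% inhibition at 10 µM.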
T3 sequence (P04035 whole entry): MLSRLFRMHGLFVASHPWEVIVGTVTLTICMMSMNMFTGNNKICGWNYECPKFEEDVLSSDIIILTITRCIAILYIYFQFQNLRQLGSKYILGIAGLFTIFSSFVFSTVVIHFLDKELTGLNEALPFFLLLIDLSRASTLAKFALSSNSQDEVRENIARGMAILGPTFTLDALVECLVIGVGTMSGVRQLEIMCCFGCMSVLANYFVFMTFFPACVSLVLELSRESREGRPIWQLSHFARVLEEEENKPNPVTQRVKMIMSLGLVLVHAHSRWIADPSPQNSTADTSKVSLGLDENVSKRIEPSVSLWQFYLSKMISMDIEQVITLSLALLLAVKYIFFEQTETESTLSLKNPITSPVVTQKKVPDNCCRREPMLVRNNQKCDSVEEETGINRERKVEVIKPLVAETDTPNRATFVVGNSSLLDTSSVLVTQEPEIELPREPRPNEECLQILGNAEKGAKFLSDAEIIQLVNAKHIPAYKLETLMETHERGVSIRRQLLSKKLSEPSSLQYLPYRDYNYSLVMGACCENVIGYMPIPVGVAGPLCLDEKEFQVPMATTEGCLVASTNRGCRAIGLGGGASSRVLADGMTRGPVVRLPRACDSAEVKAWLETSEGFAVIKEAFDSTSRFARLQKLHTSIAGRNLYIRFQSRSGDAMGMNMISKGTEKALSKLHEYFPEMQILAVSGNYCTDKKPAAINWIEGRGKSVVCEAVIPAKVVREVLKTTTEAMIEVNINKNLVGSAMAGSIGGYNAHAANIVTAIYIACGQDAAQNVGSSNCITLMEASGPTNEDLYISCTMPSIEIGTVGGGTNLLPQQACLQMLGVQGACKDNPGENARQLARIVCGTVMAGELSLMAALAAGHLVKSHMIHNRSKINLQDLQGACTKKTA
The arrangement: species or system Escherichia coli.

With `CCCNCC(O)COc1ccccc1C(=O)CCc1ccccc1` (centres undefined) [PROPAFENONE], the 50% inhibitory concentration (IC50) result (in test [1]; in test [2]; on Adenosine receptor A1; in test [3]; in test [4]; in test [5]) was “Not Active” throughout. Further, the Ki entry in test [1], in test [2] and in test [4] was “Not Active” throughout.
In the case of `COc1cc([C@@H]2c3cc4c(cc3[C@@H](O[C@@H]3O[C@@H]5CO[C@@H](C)O[C@H]5[C@H](O)[C@H]3O)[C@H]3COC(=O)[C@H]23)OCO4)cc(OC)c1O` [ETOPOSIDE], the IC50 entry (in test [1]; in test [2]; on Adenosine receptor A1; in test [3]; in test [4]; in test [5]) was “Not Active” each time. Moreover, the Ki result in test [1], in test [2] and in test [4] was “Not Active” throughout.
As for `Cc1c(OCC(F)(F)F)ccnc1C[S+]([O-])c1nc2ccccc2[nH]1` (centres undefined) [LANSOPRAZOLE], the 50% inhibitory concentration (IC50) entry (in test [1]; in test [2]; on Adenosine receptor A1; in test [3]; in test [4]; in test [5]) was “Not Active” in each case. In addition, the Ki entry in test [1], in test [2] and in test [4] was “Not Active” each time.
Regarding `COc1cc(N)c(Cl)cc1C(=O)NC1CCN(CCCOc2ccc(F)cc2)CC1OC` (centres undefined) [CISAPRIDE], the concentration for half-maximal inhibition (IC50) result in test [1] was “Not Active”; in test [2], “Not Active”; at Adenosine receptor A1, “Not Active”; in test [3], “Not Active”; in test [4], “Not Active”; in test [5] (read-out: IC50), 3.37 µM. For the same compound, the Ki result in test [1], in test [2] and in test [4] was “Not Active” each time.
Turning to `CC(=O)[C@@]1(O)CC[C@H]2[C@@H]3CCC4=CC(=O)CC[C@]4(C)[C@H]3CC[C@@]21C` [HYDROXYPROGESTERONE], the IC50 entry (in test [1]; in test [2]; at Adenosine receptor A1; in test [3]; in test [4]; in test [5]) was “Not Active” in each case. Besides, the Ki result in test [1], in test [2] and in test [4] was “Not Active” in each case.
As to `CC(C)NCC(O)COc1cccc2[nH]ccc12` (centres undefined) [PINDOLOL], the IC50 result (in test [1]; in test [2]; against Adenosine receptor A1; in test [3]; in test [4]; in test [5]) was “Not Active” each time. For the same compound, the Ki entry in test [1], in test [2] and in test [4] was “Not Active” in each case.
In the case of `NCCCC(O)(P(=O)(O)O)P(=O)(O)O` [ALENDRONIC ACID], the IC50 entry (in test [1]; in test [2]; against Adenosine receptor A1; in test [3]; in test [4]; in test [5]) was “Not Active” in each case. The Ki entry in test [1], in test [2] and in test [4] was “Not Active” each time.
Turning to `COc1ccc2c3c1O[C@H]1C[C@@H](O)C=C[C@@]31CCN(C)C2` [GALANTAMINE], the IC50 entry (in test [1]; in test [2]; against Adenosine receptor A1; in test [3]; in test [4]; in test [5]) was “Not Active” each time. Moreover, the Ki result in test [1], in test [2] and in test [4] was “Not Active” in each case.
Take `COC1=C(OC)C(=O)C(CCCCCCCCCCO)=C(C)C1=O` [IDEBENONE]: the IC50 entry (in test [1]; in test [2]; against Adenosine receptor A1; in test [3]; in test [4]; in test [5]) was “Not Active” in each case. Besides, the Ki result in test [1], in test [2] and in test [4] was “Not Active” throughout.
As to `COc1ccc2cc3[n+](cc2c1OC)CCc1cc2c(cc1-3)OCO2.[Cl-]` [BERBERINE CHLORIDE], the IC50 result (in test [1]; in test [2]; against Adenosine receptor A1; in test [3]; in test [4]; in test [5]) was “Not Active” in each case. In addition, the Ki entry in test [1], in test [2] and in test [4] was “Not Active” in each case.
Consider `OC(CCCN1CCCCC1)(c1ccccc1)c1ccccc1` [DIPHENIDOL], for which the IC50 entry (in test [1]; in test [2]; against Adenosine receptor A1; in test [3]; in test [4]; in test [5]) was “Not Active” each time. Besides, the Ki result in test [1], in test [2] and in test [4] was “Not Active” each time.
Turning to `CC(C)=CCC/C(C)=C/CO` [GERANIOL], the concentration for half-maximal inhibition (IC50) entry (in test [1]; in test [2]; on Adenosine receptor A1; in test [3]; in test [4]; in test [5]) was “Not Active” in each case. For the same compound, the Ki result in test [1], in test [2] and in test [4] was “Not Active” each time.
Turning to `CN1[C@@H]2CC[C@H]1C[C@@H](OC(=O)C(CO)c1ccccc1)C2` (some centres undefined) [ATROPINE], the IC50 result (in test [1]; in test [2]; at Adenosine receptor A1; in test [3]; in test [4]; in test [5]) was “Not Active” each time. In addition, the Ki result in test [1], in test [2] and in test [4] was “Not Active” each time.
For `C[C@@H]1C[C@H]2[C@@H]3CCC4=CC(=O)C=C[C@]4(C)[C@@]3(F)[C@@H](O)C[C@]2(C)[C@@]1(O)C(=O)CO` [DEXAMETHASONE], the 50% inhibitory concentration (IC50) result (in test [1]; in test [2]; at Adenosine receptor A1; in test [3]; in test [4]; in test [5]) was “Not Active” in each case. In addition, the Ki result in test [1], in test [2] and in test [4] was “Not Active” in each case.
Regarding `Cc1cc2c(OCC(CNC(C)(C)C)OC(=O)c3ccccc3)cccc2[nH]1` (centres undefined) [BOPINDOLOL], the IC50 entry (in test [1]; in test [2]; on Adenosine receptor A1; in test [3]; in test [4]; in test [5]) was “Not Active” throughout. The Ki entry in test [1], in test [2] and in test [4] was “Not Active” in each case.
For the compound `CC(C)c1cccc(C(C)C)c1O` [PROPOFOL], the concentration for half-maximal inhibition (IC50) result (in test [1]; in test [2]; against Adenosine receptor A1; in test [3]; in test [4]; in test [5]) was “Not Active” each time. Also, the Ki entry in test [1], in test [2] and in test [4] was “Not Active” in each case.

One may read the IC50 as the concentration at which inhibition is half-maximal.
